Experimental data reported in patent publication US20210270801A1, “TOPOGRAPHICALLY GUIDED CELL MIGRATION DEVICES AND METHODS” (priority 2018, published 2021).

Test system: MCF10A cells
Assay: Impedimetric collective cell migration assay with proliferation inhibitor
Assay type: cell-based
Settings: 1 ng/ml
Protocol: In experiments designed to validate the proper functioning of devices, systems and methods for CMAPs of the present disclosure, MCF10A cells, a non-tumorigenic mammary epithelial cell line, were chosen as the cell model to validate whether a Nafion-nanotextured substrate is suitable for cell growth and migration. Cell monolayers were grown to cover a half of the area of each well to achieve a uniform condition at the beginning of the experiment. An elastomeric silicone (polydimethylsiloxane or PDMS) block was attached to the Nafion-patterned surface in each well, and then the MCF10A cells were seeded into the notch of the PDMS block at a seeding density of 20,000 cells per well. After 24 hours of incubation, the cells grew into a cell monolayer in the cell-seeding region and the PDMS block in each well was removed to initiate an impedimetric recording of collective cell migration. Cells migrated collectively as a cell sheet in a migration direction toward the other side of the well along the direction of nanogrooves and reached the end of the nanotextured migration area after 60-hour of migration.
Additional validation studies were carried out to determine whether collective cell migration behaviors are affected by the nanotextured cell-interface surface, which mimics the topography of in vivo cell migration microenvironment. MCF10A cells were grown on both nanotextured and untextured surfaces and the distances between the cell sheet border at 0 hour and 60 hours were measured.
Identifying effective drugs that target tumor metastasis is one of the ultimate goals of cancer migration assays. For this reason, a CMAP of the present disclosure was used to assess its capability to detect drug effects by using widely applied inhibitors. In this experiment, 1 ng/ml mitomycin C was used to inhibit MCF10A cell proliferation to determine whether collective cell migration is still faster on Nafion-nanotextured surfaces than on the untextured surfaces, after eliminating proliferation as a confounding factor.

## CO[C@@]12[C@H](COC(N)=O)C3=C(C(=O)C(C)=C(N)C3=O)N1C[C@@H]1N[C@@H]12 [mitomycin C]
Nafion-nanotextured (NP) surface, compared with UP untreated, P<0.05
  collective migration: continued to migrate with alacrity, even outpacing their UP untreated counterparts
Both nanotextured (NP) and untextured (UP) groups, impedance at 10 kHz
  collective migration after proliferation inhibition: substantially slowed but did not inhibit collective migration
Untextured (UP) surface
  collective migration / change in impedance over the duration: migrated minimally as expected with no significant change in impedance
